Measured values taken from BindingDB's records for doi:10.1016/j.bmcl.2004.12.084 (Novo Nordisk, 2005).

Molecular target: Peroxisome proliferator-activated receptor gamma (Homo sapiens) (UniProt P37231)
Test: Effective concentration for human peroxisome proliferator-activated receptor gamma

Row | Compound | EC50 [µM]
1 | CCO[C@@H](Cc1ccc(OC/C=C(/C)C#Cc2ccccc2)cc1)C(=O)O [(S)-2-Ethoxy-3-[4-((Z)-3-methyl-5-phenyl-pent-2-en-4-ynyloxy)-phenyl]-propionic acid] | 0.6
2 | CCO[C@@H](Cc1ccc(OCc2ccc(COc3ccc(C[C@H](OCC)C(=O)O)cc3)cc2)cc1)C(=O)O [(S)-3-(4-{4-[4-((S)-2-Carboxy-2-ethoxy-ethyl)-phenoxymethyl]-benzyloxy}-phenyl)-2-ethoxy-propionic acid] | 14
3 | CCO[C@@H](Cc1ccc(O/C=C\Oc2ccc(C[C@@H](OCC)C(=O)O)cc2)cc1)C(=O)O [(S)-3-(4-{(Z)-2-[4-((R)-2-Carboxy-2-ethoxy-ethyl)-phenoxy]-vinyloxy}-phenyl)-2-ethoxy-propionic acid] | 15
